Reference: patent US9796711B2, “Substituted pyrazolo[3,4-b]pyridin-6-carboxylic acids and method of use” (AbbVie S.àr.l., priority 2015, dated 2017)

What was measured:
ΔF508-CFTR [1] = target: T1, ΔF508-CFTR (Homo sapiens, UniProt P13569, DEL508-508); test: CFTR cell surface levels using HRP-tagged ΔF508-CFTR expressing CFBE cells, in the presence of a co-corrector; assay type: cell-based
T1 construct: host or cells: CFBE41o-, doxycycline-inducible
How it was run: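 Cells were seeded with 0.5 μg/mL doxycycline and held 68 h at 37 °C. Test compounds plus 3 μM co-corrector (final 0.1% DMSO) were then added for 20 h at 33 °C. Washed cells received HRP substrate, and luminescence was normalized between DMSO and 3 μM co-corrector controls.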

ΔF508-CFTR [2] = target: T1, ΔF508-CFTR; test: CFTR cell surface levels using HRP-tagged ΔF508-CFTR expressing CFBE cells, intrinsic corrector capacity; assay type: cell-based
How it was run: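 Here the cells express ΔF508-CFTR with horseradish peroxidase inserted in extracellular loop 4, so only rescued channel at the surface gives luminescent signal. Compounds act on their own, 20 h at the reduced temperature of 33 °C; values are percent activity relative to DMSO and a 3 μM corrector.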

[3] = HRP-tagged ΔF508-CFTR expressing CFBE cells, in the presence of 3 μM co-corrector
[4] = HRP-tagged ΔF508-CFTR expressing CFBE cells, intrinsic corrector capacity (no co-corrector), 33° C., 20 hours
[5] = HRP-tagged ΔF508-CFTR expressing CFBE cells, in the presence of 3 μM co-corrector, read-out: EC50
[6] = HRP-tagged ΔF508-CFTR expressing CFBE cells, intrinsic corrector capacity (no co-corrector), 33° C., 20 hours, read-out: EC50

T1 sequence (P13569 with tags, fused parts or gaps DEL508-508): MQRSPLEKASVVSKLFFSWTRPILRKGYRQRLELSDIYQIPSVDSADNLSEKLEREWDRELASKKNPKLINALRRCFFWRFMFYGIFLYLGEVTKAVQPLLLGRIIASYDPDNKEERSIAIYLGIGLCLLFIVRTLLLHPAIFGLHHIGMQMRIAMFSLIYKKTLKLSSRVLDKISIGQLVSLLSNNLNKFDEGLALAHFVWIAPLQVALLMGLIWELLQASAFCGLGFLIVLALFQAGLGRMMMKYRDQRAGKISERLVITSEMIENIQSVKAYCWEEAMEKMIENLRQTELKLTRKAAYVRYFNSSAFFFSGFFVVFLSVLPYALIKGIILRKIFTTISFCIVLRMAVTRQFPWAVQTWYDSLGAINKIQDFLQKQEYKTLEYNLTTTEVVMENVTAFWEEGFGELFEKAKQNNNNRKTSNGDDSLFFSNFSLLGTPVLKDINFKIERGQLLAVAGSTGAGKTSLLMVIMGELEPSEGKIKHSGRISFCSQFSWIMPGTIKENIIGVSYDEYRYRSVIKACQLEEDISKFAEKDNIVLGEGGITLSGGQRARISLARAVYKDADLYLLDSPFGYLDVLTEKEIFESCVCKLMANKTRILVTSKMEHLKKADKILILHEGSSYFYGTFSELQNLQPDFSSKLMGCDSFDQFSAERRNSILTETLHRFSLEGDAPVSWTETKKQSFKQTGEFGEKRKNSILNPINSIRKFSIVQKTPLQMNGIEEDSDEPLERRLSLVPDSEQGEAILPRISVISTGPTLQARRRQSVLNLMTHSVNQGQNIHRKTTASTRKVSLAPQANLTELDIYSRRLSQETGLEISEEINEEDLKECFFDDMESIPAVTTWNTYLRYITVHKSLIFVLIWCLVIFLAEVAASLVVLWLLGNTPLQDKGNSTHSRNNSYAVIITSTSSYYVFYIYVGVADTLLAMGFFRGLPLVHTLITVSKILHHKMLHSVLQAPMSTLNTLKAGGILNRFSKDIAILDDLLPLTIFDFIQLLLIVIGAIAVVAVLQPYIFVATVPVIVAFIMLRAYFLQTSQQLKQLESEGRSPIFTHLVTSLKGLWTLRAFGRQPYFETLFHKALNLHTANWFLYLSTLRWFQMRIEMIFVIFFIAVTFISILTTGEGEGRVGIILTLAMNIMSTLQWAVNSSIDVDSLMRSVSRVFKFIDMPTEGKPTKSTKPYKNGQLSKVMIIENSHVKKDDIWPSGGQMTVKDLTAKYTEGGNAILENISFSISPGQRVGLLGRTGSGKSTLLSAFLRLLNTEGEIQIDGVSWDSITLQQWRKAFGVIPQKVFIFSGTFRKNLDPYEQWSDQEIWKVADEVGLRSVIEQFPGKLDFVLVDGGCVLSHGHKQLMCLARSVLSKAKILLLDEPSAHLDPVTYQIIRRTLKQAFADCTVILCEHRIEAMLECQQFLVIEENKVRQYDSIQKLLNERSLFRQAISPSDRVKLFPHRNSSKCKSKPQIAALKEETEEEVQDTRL

| Structure (SMILES) | EC50 (ΔF508-CFTR [1]) | % Activation (ΔF508-CFTR [1]; [3]) | EC50 (ΔF508-CFTR [2]) | % Activation (ΔF508-CFTR [2]; [4]) | EC50 (ΔF508-CFTR [1]; [5]) | EC50 (ΔF508-CFTR [2]; [6]) |
| --- | --- | --- | --- | --- | --- | --- |
| O=C(O)c1cc(N2CCC(CCN3CCOCC3)CC2)c2c(C3CCC3)nn(-c3ccccc3)c2n1 [compound 575, 3-cyclobutyl-4-{4-[2-(morpholin-4-yl)ethyl]piperidin-1-yl}-1-phenyl-1H-pyrazolo[3,4-b]pyridine-6-carboxylic acid] | 209 nM | 431.9% | 512 nM | 268.4% | – | – |
| O=C(O)c1cc(N2CCC(N3CCCCC3)CC2)c2c(C3CCC3)nn(-c3ccccc3)c2n1 [compound 576, 4-([1,4′-bipiperidin]-1′-yl)-3-cyclobutyl-1-phenyl-1H-pyrazolo[3,4-b]pyridine-6-carboxylic acid] | 396 nM | 390.78% | 496 nM | 175.2% | – | – |
| CC(C)c1nn(-c2ccc(F)cc2)c2nc(C(=O)O)cc(N3CCC(C(C)(C)O)CC3)c12 [compound 656, 1-(4-fluorophenyl)-4-[4-(2-hydroxypropan-2-yl)piperidin-1-yl]-3-(propan-2-yl)-1H-pyrazolo[3,4-b]pyridine-6-carboxylic acid] | – | 415.7% | – | 287.7% | 191 nM | 437 nM |
| O=C(O)c1cc(N2CCC(N3CCOCC3)CC2)c2c(C3CCC3)nn(-c3ccc(F)cc3)c2n1 [compound 679, 3-cyclobutyl-1-(4-fluorophenyl)-4-[4-(morpholin-4-yl)piperidin-1-yl]-1H-pyrazolo[3,4-b]pyridine-6-carboxylic acid] | – | 503.6% | – | 279.5% | 299 nM | 370 nM |
| CC(C1CCN(c2cc(C(=O)O)nc3c2c(C2CCC2)nn3-c2ccccc2)CC1)N1CCOCC1 (centres unmarked) [compound 683, 3-cyclobutyl-4-{4-[1-(morpholin-4-yl)ethyl]piperidin-1-yl}-1-phenyl-1H-pyrazolo[3,4-b]pyridine-6-carboxylic acid] | – | 600.53% | – | 395.1% | 60.7 nM | 141 nM |
| CC1CCN(CCC2CCN(c3cc(C(=O)O)nc4c3c(C3CCC3)nn4-c3ccccc3)CC2)CC1 [compound 687, 3-cyclobutyl-4-{4-[2-(4-methylpiperidin-1-yl)ethyl]piperidin-1-yl}-1-phenyl-1H-pyrazolo[3,4-b]pyridine-6-carboxylic acid] | – | 454% | – | 264.95% | 89.7 nM | 171 nM |
| CN1CCC2(CC1)CCN(c1cc(C(=O)O)nc3c1c(C1CCC1)nn3-c1ccccc1)CC2 [compound 699, 3-cyclobutyl-4-(9-methyl-3,9-diazaspiro[5.5]undecan-3-yl)-1-phenyl-1H-pyrazolo[3,4-b]pyridine-6-carboxylic acid] | – | 432% | – | 247.63% | 169 nM | 622 nM |
| O=C(O)c1cc(N2CCC(N3CCN(C4CC4)CC3)CC2)c2c(C3CCC3)nn(-c3ccccc3)c2n1 [compound 738, 3-cyclobutyl-4-[4-(4-cyclopropylpiperazin-1-yl)piperidin-1-yl]-1-phenyl-1H-pyrazolo[3,4-b]pyridine-6-carboxylic acid] | – | 472.1% | – | 267.6% | 110 nM | 245 nM |
| CC(C)c1nn(-c2ccc(F)cc2)c2nc(C(=O)O)cc(N3CCC(N4CCN(C5CC5)CC4)CC3)c12 [compound 754, 4-[4-(4-cyclopropylpiperazin-1-yl)piperidin-1-yl]-1-(4-fluorophenyl)-3-(propan-2-yl)-1H-pyrazolo[3,4-b]pyridine-6-carboxylic acid] | – | 467.3% | – | 254.1% | 153 nM | 385 nM |
| CC(C)c1nn(-c2ccc(F)cc2)c2nc(C(=O)O)cc(N3CCC(C(C)N4CCCC4)CC3)c12 (centres unmarked) [compound 789, 1-(4-fluorophenyl)-3-(propan-2-yl)-4-{4-[1-(pyrrolidin-1-yl)ethyl]piperidin-1-yl}-1H-pyrazolo[3,4-b]pyridine-6-carboxylic acid] | – | 460.95% | – | 257.05% | 918 nM | 477 nM |
| CC(C)c1nn(-c2ccc(F)cc2)c2nc(C(=O)O)cc(N3CCC(CN4CCCCC4)CC3)c12 [compound 790, 1-(4-fluorophenyl)-4-{4-[(piperidin-1-yl)methyl]piperidin-1-yl}-3-(propan-2-yl)-1H-pyrazolo[3,4-b]pyridine-6-carboxylic acid] | – | 419.1% | – | 193.7% | 181 nM | 294 nM |
| CO[C@@H]1CCN(CC2CCN(c3cc(C(=O)O)nc4c3c(C3CCC3)nn4-c3ccccc3)CC2)C1 [compound 803, 3-cyclobutyl-4-(4-{[(3R)-3-methoxypyrrolidin-1-yl]methyl}piperidin-1-yl)-1-phenyl-1H-pyrazolo[3,4-b]pyridine-6-carboxylic acid] | – | 436% | – | 229.35% | 672 nM | 1020 nM |
| COC[C@H]1CCN(CC2CCN(c3cc(C(=O)O)nc4c3c(C3CCC3)nn4-c3ccccc3)CC2)C1 [compound 804, 3-cyclobutyl-4-(4-{[(3S)-3-(methoxymethyl)pyrrolidin-1-yl]methyl}piperidin-1-yl)-1-phenyl-1H-pyrazolo[3,4-b]pyridine-6-carboxylic acid] | – | 365% | – | 191.15% | 231 nM | 489 nM |
| O=C(O)c1cc(N2CCC(CCN3CCOCC3)CC2)c2c(C3CCC3)nn(-c3ccc(F)cc3)c2n1 [compound 810, 3-cyclobutyl-1-(4-fluorophenyl)-4-{4-[2-(morpholin-4-yl)ethyl]piperidin-1-yl}-1H-pyrazolo[3,4-b]pyridine-6-carboxylic acid] | – | 468.7% | – | 277.6% | 88.4 nM | 204 nM |
| O=C(O)c1cc(N2CCC(N3CCC(F)CC3)CC2)c2c(C3CCC3)nn(-c3ccc(F)cc3)c2n1 [compound 849, 3-cyclobutyl-4-(4-fluoro[1,4′-bipiperidin]-1′-yl)-1-(4-fluorophenyl)-1H-pyrazolo[3,4-b]pyridine-6-carboxylic acid] | – | 458.6% | – | 249.1% | 231 nM | 660 nM |
| COCCN1CCN(c2ccc(-c3cc(C(=O)O)nc4c3c(C3CCC3)nn4C3CCCCC3)cn2)CC1 [compound 878, 3-cyclobutyl-1-cyclohexyl-4-{6-[4-(2-methoxyethyl)piperazin-1-yl]pyridin-3-yl}-1H-pyrazolo[3,4-b]pyridine-6-carboxylic acid] | – | 391.3% | – | 181.05% | 99.6 nM | 221 nM |
| O=C(O)c1cc(N2CCC(N3CCN(C4CC4)CC3)CC2)c2c(C3CCC3)nn(-c3ccc(F)cc3)c2n1 [compound 886, 3-cyclobutyl-4-[4-(4-cyclopropylpiperazin-1-yl)piperidin-1-yl]-1-(4-fluorophenyl)-1H-pyrazolo[3,4-b]pyridine-6-carboxylic acid] | – | 551.77% | – | 236.05% | 511 nM | 467 nM |
